{"source": "patent EP3431468B1", "about": "“USE OF ADIPONECTIN RECEPTOR AGONISTS IN TREATING DEPRESSION, ANXIETY AND NEUROINFLAMMATION” (CENTRE NATIONAL DE LA RECHERCHE SCIENTIFIQUE, priority 2017, dated 2019)", "key": {"[1]": {"test": "Kinetic of AdipoRon in plasma and brain areas by HPLC coupled to MS/MS", "format": "in vivo", "conditions": "for time of highest level of AdipoRon post ip injection: 1mg/kg ip; for level of AdipoRon: 3-hours post ip injection, 1mg/kg"}, "[2]": {"test_system": "wt mice", "test": "Open-field test (OF), locomotor activity", "format": "in vivo", "conditions": "chronic ip 1mg/kg for twenty consecutive days, 10 minutes recording", "method": "All behavioral testing were conducted during the light phase (between 09:00 and 14:00 am) in compliance with the Institutional Animal Care and Use Committee of the University of Nice-Sophia Antipolis (permission number 010344.01 from the French \"Ministère de l'Enseignement Supérieur et de la Recherche\" granted to Dr. Joëlle Chabry). • Forced Swimming test (FST) - Mice were placed an inescapable transparent tank (20cm diameter, 30cm deep) filled with water (23°C ± 0.5) for six minutes as previously described by Porsolt et al. (1977). The immobility duration, as an index of the resignation, was timed during the last four minutes of the test. A mouse was considered immobile when it remained floating with only slight movements to keep its head out of the water. • Open-field test (OF) - Locomotor activity was determined using open-field (OF) activity. […] Twenty-four hours later, the latency to fall, an index of the motor coordination, was recorded on accelerating rod (from 10 to 40 rpm/min). • Light & Dark test (L&D) - The L&D place preference test was used to assess the anxiety-like behavior. […] To initiate testing, mice were placed into the light side and activity was recorded for 5 minutes. […] The amount of water and 1% sucrose solution was measured twenty-four hours later. […]"}}}
{"smiles": "O=C(COc1ccc(C(=O)c2ccccc2)cc1)NC1CCN(Cc2ccccc2)CC1", "note": "[AdipoRon, 2-(4-Benzoylphenoxy)-N-[1-(phenylmethyl)-4-piperidinyl]-acetamide]", "values": [{"measurement": "time of highest level of AdipoRon post ip injection", "setting": "[1]; hippocampus", "value": "thirty"}, {"measurement": "level of AdipoRon", "setting": "[1]; hippocampus", "value": "barely detectable"}, {"measurement": "time of highest level of AdipoRon post ip injection", "setting": "[1]; hypothalamus", "value": "thirty"}, {"measurement": "level of AdipoRon", "setting": "[1]; hypothalamus", "value": "barely detectable"}, {"measurement": "blood-brain barrier (BBB) crossing", "setting": "[1]; ip injection, mice", "value": "crosses the BBB"}, {"measurement": "time of highest level of AdipoRon post ip injection", "setting": "[1]; plasma", "value": "thirty"}, {"measurement": "level of AdipoRon", "setting": "[1]; plasma", "value": "barely detectable"}, {"measurement": "mean speed in the OF test", "setting": "[2]", "value": "did not significantly modify"}, {"measurement": "total distance traveled in the OF test", "setting": "[2]", "value": "did not significantly modify"}]}
